Test results from patent publication US20090233942A1, “Genetic markers associated with response to antidepressants” (priority 2008, published 2009).

Assays:
BCLXL expression = conditions: rat depression model, chronic administration; cited from earlier work
CYP2C9 = CYP2C9 (Homo sapiens, UniProt P11712); conditions: cited from earlier work
c-fos [1] = conditions: rat; cited from earlier work
laminin, CAM-L1, pCREB = conditions: chronic administration, unstressed rats; cited from earlier work
patients with MDD = experiment: Five Phase II studies of vilazodone, eight weeks of treatment; assay type: in vivo, human; conditions: active comparator in three Phase II studies
Description: As part of the vilazodone development program, five Phase II studies have been conducted, all in patients with MDD. These studies randomized 2,098 patients for eight weeks of treatment, 1196 of whom received vilazodone.

CYP1A2 = target: T1, CYP1A2 (Homo sapiens, UniProt P05177); conditions: cited from earlier work
T1 sequence (P05177 1-516): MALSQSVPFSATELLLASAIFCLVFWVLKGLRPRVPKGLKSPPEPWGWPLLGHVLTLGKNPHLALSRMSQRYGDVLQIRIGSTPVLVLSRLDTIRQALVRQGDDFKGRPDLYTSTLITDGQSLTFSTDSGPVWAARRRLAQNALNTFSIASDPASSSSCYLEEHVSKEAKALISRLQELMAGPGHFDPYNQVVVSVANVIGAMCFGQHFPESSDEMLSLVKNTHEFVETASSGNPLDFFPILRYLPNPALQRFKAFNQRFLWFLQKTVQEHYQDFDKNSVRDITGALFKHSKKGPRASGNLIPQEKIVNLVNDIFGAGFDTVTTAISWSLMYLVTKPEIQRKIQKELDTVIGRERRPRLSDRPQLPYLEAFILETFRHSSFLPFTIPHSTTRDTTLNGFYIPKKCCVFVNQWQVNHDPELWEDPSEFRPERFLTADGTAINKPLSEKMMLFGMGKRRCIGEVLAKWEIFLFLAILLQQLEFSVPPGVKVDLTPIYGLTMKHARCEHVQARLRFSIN

GluR1 = conditions: cited from earlier work
CYP3A4 = CYP3A4 (Homo sapiens, UniProt P08684); conditions: cited from earlier work
CYP3A4, sequence (P08684 whole entry): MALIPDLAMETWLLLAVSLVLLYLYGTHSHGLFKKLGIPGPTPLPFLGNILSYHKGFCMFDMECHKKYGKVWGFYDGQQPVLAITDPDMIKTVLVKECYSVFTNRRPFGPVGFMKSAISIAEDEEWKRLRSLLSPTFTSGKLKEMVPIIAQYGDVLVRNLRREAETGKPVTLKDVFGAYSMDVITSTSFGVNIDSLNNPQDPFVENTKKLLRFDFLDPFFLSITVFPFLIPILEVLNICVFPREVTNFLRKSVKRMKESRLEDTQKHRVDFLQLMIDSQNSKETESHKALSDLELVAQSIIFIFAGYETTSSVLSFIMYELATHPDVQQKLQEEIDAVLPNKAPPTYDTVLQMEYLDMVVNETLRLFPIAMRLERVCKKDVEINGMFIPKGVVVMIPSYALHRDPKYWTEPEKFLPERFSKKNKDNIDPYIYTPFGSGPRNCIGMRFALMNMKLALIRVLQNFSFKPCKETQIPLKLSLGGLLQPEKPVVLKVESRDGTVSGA

CYP2C19 = CYP2C19 (Homo sapiens, UniProt P33261); conditions: cited from earlier work
CYP2C19, sequence (P33261 whole entry): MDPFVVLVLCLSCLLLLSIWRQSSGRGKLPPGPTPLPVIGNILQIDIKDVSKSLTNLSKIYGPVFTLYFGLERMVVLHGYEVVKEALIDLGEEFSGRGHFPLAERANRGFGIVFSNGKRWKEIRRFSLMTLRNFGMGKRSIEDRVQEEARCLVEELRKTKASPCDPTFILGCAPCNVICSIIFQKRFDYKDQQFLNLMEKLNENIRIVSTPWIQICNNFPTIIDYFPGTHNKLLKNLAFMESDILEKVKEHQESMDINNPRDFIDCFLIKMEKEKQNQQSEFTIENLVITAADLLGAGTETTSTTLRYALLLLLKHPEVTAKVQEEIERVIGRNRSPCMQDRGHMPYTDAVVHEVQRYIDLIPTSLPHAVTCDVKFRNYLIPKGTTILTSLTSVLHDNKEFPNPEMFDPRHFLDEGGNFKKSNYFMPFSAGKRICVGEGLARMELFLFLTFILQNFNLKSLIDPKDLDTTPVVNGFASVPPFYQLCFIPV

c-fos [2] = conditions: unstressed rats; cited from earlier work
MAPK1 = conditions: cultured rat astrocytes; cited from earlier work
PLC-β1 knockout mice = conditions: cited from earlier work
GluR1, GluR2, and GluR3 = conditions: chronic (30 days) administration; mouse nucleus accumbens and dorsal striatum; cited from earlier work
26S proteasome = conditions: cited from earlier work
mice = conditions: intracerebroventricular injection; cited from earlier work

CYP2C9, sequence (P11712 whole entry): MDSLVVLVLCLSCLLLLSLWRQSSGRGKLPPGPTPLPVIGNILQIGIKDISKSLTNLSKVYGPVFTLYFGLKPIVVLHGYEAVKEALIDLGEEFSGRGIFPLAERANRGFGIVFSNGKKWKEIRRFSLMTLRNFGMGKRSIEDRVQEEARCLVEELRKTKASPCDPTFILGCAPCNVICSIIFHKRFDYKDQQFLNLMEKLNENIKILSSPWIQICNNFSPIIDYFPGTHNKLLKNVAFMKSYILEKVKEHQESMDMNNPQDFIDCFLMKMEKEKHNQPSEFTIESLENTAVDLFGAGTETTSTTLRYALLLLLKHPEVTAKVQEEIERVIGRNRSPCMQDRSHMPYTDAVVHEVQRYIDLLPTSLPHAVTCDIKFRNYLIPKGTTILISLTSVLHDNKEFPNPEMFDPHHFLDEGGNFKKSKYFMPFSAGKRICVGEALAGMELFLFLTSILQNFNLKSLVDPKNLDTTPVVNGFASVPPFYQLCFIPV

Question: With N[C@@H]1C[C@H]1c1ccccc1 (racemic) [tranylcypromine] as the compound, how does the “BCLXL expression in the CA1 and DG subfields” value (BCLXL expression) read?
Answer: increased

Question: With CN[C@H]1CC[C@@H](c2ccc(Cl)c(Cl)c2)c2ccccc21 [Sertraline] as the compound, how does the “inhibition of CYP2C9” value (CYP2C9) read?
Answer: partially inhibit

Question: For CN(C)CCCN1c2ccccc2CCc2ccc(Cl)cc21 [clomipramine], which “level of c-fos in the PAG brain region” value (c-fos [1]) is on record?
Answer: decreased

Question: What does the source list for CNCCCN1c2ccccc2CCc2ccccc21 [desipramine]?
Answer: laminin and CAM-L1 in hippocampus and frontal cortex (laminin, CAM-L1, pCREB): increased; pCREB (laminin, CAM-L1, pCREB): increased pCREB in the frontal cortex only; level of c-fos in the PAG brain region (c-fos [1]): decreased

Question: What does the source list for CNCCC(Oc1ccc(C(F)(F)F)cc1)c1ccccc1 (stereo not shown) [fluoxetine]?
Answer: Hamilton Depression Scale (HAM-D) total score versus placebo (patients with MDD): did not show a statistically significant improvement; inhibition of CYP1A2 (CYP1A2): inhibit; phosphorylation of GluR1 (GluR1): increase; inhibition of CYP3A4 (CYP3A4): inhibit; inhibition of CYP2C19 (CYP2C19): inhibit; c-fos staining in the brain (c-fos [2]): decrease; MAPK1 activation (MAPK1): increased

Question: For O=C(CCCN1CCC(O)(c2ccc(Cl)cc2)CC1)c1ccc(F)cc1 [haloperidol], which schizophrenic-like behaviors (PLC-β1 knockout mice) is on record?
Answer: rescued

Question: For CNCCCC12CCC(c3ccccc31)c1ccccc12 [maprotiline], which “GluR1, GluR2, and GluR3” value (GluR1, GluR2, and GluR3) is on record?
Answer: increased

Question: With CCCCC[C@H](O)/C=C/[C@H]1C(=O)C=C[C@@H]1C/C=C\CCCC(=O)O [prostaglandin J2] as the compound, how does the “function of the 26S proteasome” value (26S proteasome) read?
Answer: inhibited

Question: Which “c-fos staining in the brain” value (c-fos [2]) does the source give for CCOc1ccccc1OC(c1ccccc1)C1CNCCO1 (stereo not shown) [reboxetine] here?
Answer: decrease

Question: And the “BCLXL expression in the CA1 and DG subfields” value (BCLXL expression)?
Answer: increased

Question: For neuropeptide Y [NPY], which antidepressant-like effect (mice) is on record?
Answer: dose dependent antidepressant-like effect
